# Measurements taken from patent publication US12606795B2 (Thankcome Biological Science and Technology (SuZhou) Co., …, priority 2023, dated 2026).
# Tests used:
# [1] = Tolerance to artificial gastric juice; type: physicochemical; settings: artificial gastric juice pH 2.0, 37° C., at 240 min
# Experimental: (§1) Gastric juice ([…], 2 g/L NaCl, and 3.2 g/L pepsin, pH 2.0) and intestinal juice (6.8 g/L KH2 PO4, 10 g/L trypsin, and 0.1M NaOH, pH 8.0) were prepared, and then the gastric juice and the intestinal juice were filtered and sterilized using 0.22 μm sterile filter. […] The bacterial cells were washed twice with sterile saline and resuspended in 5 mL saline. A bacterial solution was mixed well with the sterile artificial gastric or intestinal juice in 1:1 (v/v). The mixture was shaken well, and then was placed in a constant-temperature incubator and culture was performed at 37° C.
# [2] = system: gouty arthritis mouse model; assay: Gouty arthritis mouse model (sodium urate); type: in vivo, BALB/c mice; settings: for SOD in mouse ankle joint tissue: model group 1.07, normal 6.07; for MPO in mouse ankle joint tissue: model group 2.49, normal 0.38; for GSH in mouse ankle joint tissue: model group 18.06, normal 47.05; for IL-1β in serum of mice: model group 24.97, normal 12.66; for MDA in mouse ankle joint tissue: model group 26.69, normal 5.74; for IL-10 in serum of mice: model group 36.03, normal 27.20; for IL-6 in serum of mice: model group 90.05, normal 52.97; for TNF-α in serum of mice: model group 249.41, normal 117.58
# Experimental: Mice were randomly divided into 5 groups: a normal group, a model group, a glucosamine sulfate (positive control) group, an Akk low-concentration experimental (Akk-L) group, and an Akk high-concentration experimental (Akk-H) group, with 10 mice in each group. The mice in the normal group and the mice in the model group were intragastrically administered with distilled water at a dosage of 0.1 mL/10 g. bw per day. The mice in the glucosamine sulfate group were intragastrically administered with glucosamine sulfate at a dosage of 195 mg/kg. bw. The mice in the Akk-L group and the mice in the Akk-H group were intragastrically administered with Akk experimental bacteria at a dosage of 10^8 CFU/kg. bw and 10^9 CFU/kg. bw, respectively, for 7 consecutive days. Then, all experimental mice were anesthetized with isoflurane, and then 50 μL of PBS solution was injected into the tibiotarsal joint (ankle joint) of the right paw of the mouse in the normal group. 50 mg of sodium urate was added to 1 mL of PBS buffer to prepare a suspension. 50 μL of suspension was injected into the tibiotarsal joints (ankle joint) of the right paws of the rest of the mice except the mice in the […] to induce gouty arthritis. After the mice woke up, they were intragastrically administrated with a corresponding sample for 7 d still at the dosage of the sample intragastrically administrated in the previous 7 days.
# 0.1 g of mouse ankle joint tissue was weighed and added into […] containing 0.9 mL of saline and mixing was performed. Subsequently, mixed tissue samples were centrifuged at a speed of 4000 rpm for 10 min to obtain liquid supernatant. Next, related indicators in the liquid supernatant of a tissue homogenate was determined using assay kits for MPO, SOD, GSH, and MDA.
# A taken-out whole blood sample of the mouse was centrifuged at 4° C. at 4000 rpm for 10 min to obtain supernatant serum. Serum-related inflammatory indicators were determined using the ELISA kit for IL-6, IL-10, IL-1β, and TNF-α.
# [3] = Tolerance to artificial intestinal juice; type: physicochemical; settings: artificial intestinal juice pH 8.0, 37° C., at 240 min
# Experimental: as §1
# Auto-aggregation = type: physicochemical; settings: 37° C., at 20 h
# Experimental: The absorbance (OD600 nm) was adjusted to 0.5. Then the bacterial suspension was cultured at 37° C., and its absorbance at 600 nm at 4, 8, 12, 16, 20, and 24 h was measured. The auto-aggregation percentage was calculated using the following formula: […]
# [4] = system: DSS-induced ulcerative colitis mice; assay: DSS-induced ulcerative colitis in mice; type: in vivo, C57BL/6J mice; settings: 5.0% DSS mice, 1×10^10 CFU/mL intragastric daily 9 d
# Experimental: Animals and their management: male C57BL/6J mice (6 to 10-week-old, weighing 18 to 24 g) purchased from the Beijing Huafukang Biotechnology Co., Ltd, where procedures involving mice were carried out in strict accordance with international animal care standards, and approved by the Animal Protection Institute and Management Committee of Jilin Agricultural University. Adaptive culture was performed for 1 week, and mice were cultured at room temperature (25° C.±1° C.) in a cycle of 12 h of light and 12 h of darkness.
# Animal experimental design: 5.0% (wt/vol) DSS (molecular weight: 36,000 to 50,000) was added to drinking water of the mice for 3 consecutive days to induce colitis. Beginning on the first day of taking DSS, the A. muciniphila (viable or inactivated, with a concentration of 1×10^10 CFU/mL) was intragastrically administered per day for 9 consecutive days. C57BL/6J mice were randomly divided into four groups: a control group, a DSS model group (DSS), an AKK PRO group, and an inactivated AKK PRO group (mAKK PRO). Physiological indicators of the mice in each group were observed.
# Physiological indicators: The physiological indicators are used for assessing health statuses of the mice. The individual scores of the mice were combined to generate disease activity indices (DAI), including changes of body weight, food intake, and fecal consistency. After the mice were euthanized, the colon length and the liver weight of each mouse in each group were measured, and an immune organ index was calculated according to the following formula: liver index=liver weight (mg)/body weight (g) [Wang, X., et al., Troxerutin Improves Dextran Sulfate Sodium-Induced Ulcerative Colitis in Mice. J Agric Food Chem, 2021. 69 (9): p. 2729-2744.].
# [5] = Akk-H 10^9 CFU/kg. bw intragastric
# [6] = Akk-L 10^8 CFU/kg. bw intragastric
substance,measurement,setting,value
Akkermansia muciniphila [AKK PROBIO],survival rate in gastric juice,[1],around 85%
same,SOD in mouse ankle joint tissue,[2]; [5],4.70 ± 0.16 U/mg
same,MPO in mouse ankle joint tissue,[2]; [5],0.77 ± 0.06 U/g
same,GSH in mouse ankle joint tissue,[2]; [5],39.28 ± 2.39 mg/g
same,IL-1β in serum of mice,[2]; [5],18.48 ± 1.34 ng/mL
same,MDA in mouse ankle joint tissue,[2]; [5],12.97 ± 1.20 nmol/mg
same,IL-10 in serum of mice,[2]; [5],28.72 ± 1.35 ng/mL
same,IL-6 in serum of mice,[2]; [5],58.83 ± 2.60 ng/mL
same,TNF-α in serum of mice,[2]; [5],148.87 ± 9.60 ng/mL
same,SOD in mouse ankle joint tissue,[2]; [6],2.31 ± 0.43 U/mg
same,MPO in mouse ankle joint tissue,[2]; [6],1.97 ± 0.19 U/g
same,GSH in mouse ankle joint tissue,[2]; [6],29.89 ± 2.63 mg/g
same,IL-1β in serum of mice,[2]; [6],21.83 ± 1.72 ng/mL
same,MDA in mouse ankle joint tissue,[2]; [6],20.93 ± 1.30 nmol/mg
same,IL-10 in serum of mice,[2]; [6],34.17 ± 2.18 ng/mL
same,IL-6 in serum of mice,[2]; [6],71.59 ± 5.46 ng/mL
same,TNF-α in serum of mice,[2]; [6],211.76 ± 10.58 ng/mL
same,survival rate in intestinal juice,[3],≥ 80%
same,auto-aggregation,Auto-aggregation,around 52%
same,immune organ index (liver index),[4]; vs DSS group,significantly decreased
same,colon length,"[4]; vs DSS group, P<0.05",significantly increased
same,DAI score,[4]; vs model group,lower
same,body weight reduced,[4]; vs model group,less
same,food intake reduced,[4]; vs model group,less
